This passage reports inhibition and IC50 results from ChEMBL document CHEMBL4392850, “Cu-mediated synthesis of differentially substituted diazepines as AChE inhibitors; validation through molecular docking and Lipinski's filter to develop novel anti-neurodegenerative drugs” (Bioorg Med Chem Lett, 2019).

Some results are limits rather than exact numbers.

For experiment [1], the target named is T1, Acetylcholinesterase (Homo sapiens, UniProt P22303). Briefly: Inhibition of AChE in erythrocytes (unknown origin) pre-incubated for 20 mins before acetylthiocholine substrate addition and measured over 30 mins by DTNB dye based spectrophotometry. It counts as cell-based.
The nature of experiment [2]: Antioxidant activity assessed as DPPH radical scavenging activity incubated for 15 to 20 mins by UV-visible spectrometry relative to untreated control. The format is functional. (Loss of DPPH colour is used to gauge radical scavenging.)
A short description of experiment [3]: Antioxidant activity assessed as DPPH radical scavenging activity incubated for 15 to 20 mins by UV-visible spectrometry. The format is functional.
In experiment [4] the target is T1, Acetylcholinesterase. The experiment is described as follows: Inhibition of AChE in erythrocytes (unknown origin) pre-incubated for 20 mins before acetylthiocholine substrate addition and measured over 30 mins by DTNB dye based spectrophotometry relative to untreated control. It counts as cell-based.

T1 sequence (P22303 whole entry): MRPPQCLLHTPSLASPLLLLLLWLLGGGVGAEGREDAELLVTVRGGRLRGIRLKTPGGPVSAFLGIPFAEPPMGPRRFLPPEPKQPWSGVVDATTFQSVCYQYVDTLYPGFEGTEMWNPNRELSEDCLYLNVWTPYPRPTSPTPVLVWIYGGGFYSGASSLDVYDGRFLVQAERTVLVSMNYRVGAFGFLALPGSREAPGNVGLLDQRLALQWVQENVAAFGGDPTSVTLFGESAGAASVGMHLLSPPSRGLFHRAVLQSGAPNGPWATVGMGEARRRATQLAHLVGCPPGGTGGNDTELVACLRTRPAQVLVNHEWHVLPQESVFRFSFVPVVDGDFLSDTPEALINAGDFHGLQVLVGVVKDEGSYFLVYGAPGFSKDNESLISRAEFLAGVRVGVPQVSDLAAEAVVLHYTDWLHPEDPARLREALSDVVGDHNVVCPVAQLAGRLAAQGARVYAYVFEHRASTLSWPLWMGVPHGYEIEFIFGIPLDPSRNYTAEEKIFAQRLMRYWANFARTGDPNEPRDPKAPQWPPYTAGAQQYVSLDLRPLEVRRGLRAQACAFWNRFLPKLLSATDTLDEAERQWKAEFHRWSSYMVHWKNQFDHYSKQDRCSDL

Usually inhibition stands for the share of the control response that was lost under treatment. By IC50 is commonly meant the concentration at which inhibition is half-maximal. As for `c1ccc(-c2nnn3c2C2CCCCN2Cc2cc4c(cc2-3)OCO4)cc1` (stereo unspecified), the results for the inhibition entry (on Acetylcholinesterase [1]; in experiment [2]) were “Dose-dependent effect” and 92.3%, respectively. Besides, in experiment [3], the IC50 came to 0.0948 µM. `Cc1ccc(-c2nnn3c2C2c4ccccc4CCN2Cc2ccccc2-3)cc1` (stereo unspecified): the inhibition result on Acetylcholinesterase [1] was “Dose-dependent effect”.

With `O=C1O[C@H]([C@@H](O)CO)C(O)=C1O` [ASCORBIC ACID], the inhibition in experiment [2] was 80.2%. The concentration for half-maximal inhibition (IC50) in experiment [3] worked out at 1.25 µM. `Fc1ccc(-c2nnn3c2C2c4ccccc4CCN2Cc2ccccc2-3)cc1` (stereo unspecified): the inhibition entry on Acetylcholinesterase [1] was “Dose-dependent effect”.

For the compound `Cn1c(=O)c2c(ncn2C)n(C)c1=O`, the inhibition entry on Acetylcholinesterase [1] was “Dose-dependent effect”. Still for that read-out and setting: the result for `c1ccc(-c2nnn3c2C2c4ccccc4CCN2Cc2cc4c(cc2-3)OCO4)cc1` (stereo unspecified) reads “Dose-dependent effect”.

In the case of `Brc1ccc(-c2nnn3c2C2c4ccccc4CCN2Cc2ccccc2-3)cc1` (stereo unspecified), the values for the half-inhibitory concentration (IC50) (against Acetylcholinesterase [1]; in experiment [3]) were 0.25 µM and 0.0863 µM, respectively. For the same compound, the inhibition result at Acetylcholinesterase [1] was “Dose-dependent effect”; on Acetylcholinesterase [4], below 95%; in experiment [2] it was 96.1%. On to `c1ccc(-c2nnn3c2C2CCCN2Cc2cc4c(cc2-3)OCO4)cc1` (stereo unspecified), for which the inhibition result on Acetylcholinesterase [1] was “Dose-dependent effect”.

On to `c1ccc(-c2nnn3c2C2c4ccccc4CCN2Cc2ccccc2-3)cc1` (stereo unspecified), for which the inhibition entry on Acetylcholinesterase [1] was “Dose-dependent effect”.
